Reference: patent publication US10975069B2, “Sigma-2 receptor ligand drug conjugates as antitumor compounds, methods of synthesis and uses thereof” (priority 2014, dated 2021)
Where two headings read alike, the source gives them in different places.

How the values were obtained:
[1] = system: reactive oxygen species (ROS); assay: Reactive oxygen species (ROS) assay in AsPC-1 cells; assay type: cell-based, human; details: 8 μM; for increase in ROS: 30 min, compared to Erastin, SV119 or combination, FIG. 6; for ROS level compared to others: one hour, FIG. 11B
Description: In FIG. 6, results are shown for reactive oxygen species (ROS) assays of Aspc-1 treated with 8 μM 8 μM SW V-49s, 8 μM Erastin, 8 μM SV119, or 8 μM of an equimolar mixture of Erastin and SV119, or a positive control for 30 min. […] Parent compounds SV119 and Erastin, applied to cells either singly or in combination, had no effect at the same concentration.
ROS measurement was performed using Total ROS/Superoxide Detection Kit (Enzo life sciences, Farmingdale, N.Y.) according to the manufacturer's instructions. Briefly. As PC-1 cells were seeded at a density of 2×10^4 cells/well in a black wall clear bottom 96-well plate for 24 hours. Compounds were dissolved in DMSO and diluted in culture medium to achieve a final concentration of DMSO less than 1%. AsPC-1 cells were treated with 8 μM of SV119, Erastin, and equimolar mixture of SV119 and Erastin. ROS assay was performed one hour after treatment. Cells were treated for one hour, then media was removed and 100 μL/well of ROS/Superoxide Detection Mix was added. Fluorescence signal was measured using a multi-mode microplate reader (Bio-Tek, Winooski, Vt.). The assay was performed in 6 replicates.

caspase 3/7 = assay: CASPASE-GLO caspase 3/7 assay in AsPC-1 cells; assay type: cell-based, human; details: for caspase activity compared to 4 μM SW V-49s: 50 μM, 24 hr., FIG. 5A
Excerpt: In these experiments, the inventors investigated whether compounds of the present teachings were lethal towards pancreatic cancer cells by triggering an apoptosis cell death pathway, a ferroptosis cell death pathway, or a combination thereof. The inventors thus performed assays for caspase 3/7 as an indicator of apoptotic cell death, and assays for the generation of reactive oxygen species (ROS) as an indicator of ferropoptotic cell death. […] In FIG. 5B, results are shown for Caspase-Glo® (Promega) assays of Aspc-1 cells treated with 8 μM SW V-49s, 8 μM Erastin, 8 μM SV119, or 8 μM of an equimolar mixture of Erastin and SV 119, for 7 hrs.
(§1) In these experiments, caspase-3/7.8 and 9 activities were measured In AsPC-1 cells using the corresponding CASPASE-GLO® Assay according to the manufacturer's instructions (Promega, Madison. Wis.). This assay is based on a caspase-specific substrate, which is cleaved to release aminoluciferin, a substrate of luciferase that results in caspase-specific luminescence signals. Cells were seeded at a density of 2×10^4 in white 96-well, clear bottom plates for 24 hours before treatment with 4 μM of compounds. The contents were then mixed using a plate shaker for 30 seconds, thereafter incubated at room temperature for 90 minutes. Luminescence signal was measured using a multi-mode microplate reader (BioTek). Assay was performed in triplicates, and the caspase activity of DMSO was considered as a base line.
(§2) The present inventors have shown that SV119 induces caspase-3 dependent apoptosis (Kashiwagi, H., el al. Mol Cancer 2007; 6:48). In these experiments, AsPC-1 cells were treated with 4 μM of SW V-49s. SV119, Erastin, and equimolar mixture of SV119 and Erastin for 24 hours. Using CASPASE-GLO® Assays, Caspase-3 level was measured to assess the activity of SW 119 domain of the SW V-49s compound and Caspase-8 and 9 levels were measured to identify which apoptotic pathway was involved.

KCKO cells = assay: Viability assay (CELLTITER-GLO), 24 hours treatment; assay type: cell-based, murine
Description: (§3) In these experiments, viability assays after 24 hours treatment of human and murine pancreatic cancer cell lines and synovial sarcoma cell lines with SW V-49s or its parent compounds SV119 and Erastin, both singly and in combination, were performed. […] In comparison.
(§4) Cytotoxicity of the drugs was evaluated by CELLTITER-GLO®. Luminescent cell viability assay (Promega, Madison, Wis.). Pancreatic cell lines were plated at a density of 2×10^4/well in white 96 well, clear bottom plates for 24 hours prior to treatment. Drugs were dissolved in DMSO and serially diluted in culture medium to achieve the final concentration of DMSO less than 1%. Cells were then treated for 24 hours and 100 μl of the CELLTITER-GLO® reagent was added to each well. The contents of the plates were mixed using an orbital shaker and subsequently incubated for 10 minutes at room temperature. Luminescence signal was measured using a multi-mode microplate reader (BioTek instruments. Winooski, Vt.). Different drug concentrations were assayed in triplicate. To evaluate the efficacy of the drugs, IC50 of the compounds was calculated on a panel of human and mouse derived pancreatic cancer cell lines in vitro. Cells were treated for 24 hours with SW V-49s, SV119, Erastin, and an equimolar mixture of SV119 and Erastin, then CELLTITER-GLO® viability assay was performed.

BxPC-3 = assay: as above; assay type: cell-based, human
Description: as §3, §4

MIA PaCa-2 = assay: as above; assay type: cell-based, human
Description: as §3, §4

PANC-1 = assay: as above; assay type: cell-based, human
Description: as §3, §4

caspase 8 = assay: CASPASE-GLO caspase 8 assay in AsPC-1 cells; assay type: cell-based, human; details: 4 μM, 24 hours, FIG. 12C
Description: as §1, §2

AsPC-1 cells = assay: CELLTITER-GLO viability after pre-treatment with NAC or ZVAD; assay type: cell-based; details: Homo sapiens
Description: To assess the roles of these two mechanisms on the induction of cell death, the effects of pan-caspase inhibitor and antioxidant on the efficacy of SW V-49s were tested. In these experiments, AsPC-1 cells were pre-treated with 10 mM of the antioxidant N acetyl cysteine (NAC), 20 μM of pan-caspase inhibitor ZVAD, and DMSO as a control for 1 hour. Then, the 3 groups were treated with 10 μM of SW V-49s for 5 hours, after which a CELLTITER-GLO® viability assay was performed.

**Q.** What does the source list for `COc1ccc(C)cc1NC(=O)OC1C[C@H]2CCC[C@@H](C1)N2CCCCCCN` (stereo partly drawn) [SV119, reference compound]?
**A.** increase in ROS [1]: no effect; ROS level compared to others [1]: no increase; caspase activity compared to 4 μM SW V-49s (caspase 3/7; AsPC-1 cells): far less caspase activity; IC50 (KCKO cells; 24 hours, mean ± SEM, n ≥ 3, read-out: IC50 ± SEM, KCKO): 68.7 ± 10.1 µM; IC50 (BxPC-3; 24 hours, mean ± SEM, n ≥ 3, read-out: IC50 ± SEM, BxPC-3): 54.2 ± 2.6 µM; IC50 (MIA PaCa-2; 24 hours, mean ± SEM, n ≥ 3, read-out: IC50 ± SEM, MiaPaCa-2): 94.5 ± 1.9 µM; IC50 (PANC-1; 24 hours, mean ± SEM, n ≥ 3, read-out: IC50 ± SEM, PANC-1): 111 ± 5.3 µM

**Q.** Which “increase in caspase 8” value (caspase 8) does the source give for `CCOc1ccccc1-n1c(CN2CCN(C(=O)COc3ccc(CNCCCCCCN4C5CCCC4CC(OC(=O)Nc4cc(C)ccc4OC)C5)cc3)CC2)nc2ccccc2c1=O.O=C(O)C(=O)O` (stereo not drawn) [SW V-49s] here?
**A.** no significant increase

**Q.** And the “increase in ROS” value [1]?
**A.** 50%

**Q.** And the “ROS level compared to others” value [1]?
**A.** 1.5 fold

**Q.** And the “caspase-3 fold above baseline” value (caspase 3/7; 4 μM, 24 hours, AsPC-1, DMSO baseline, FIG. 12A)?
**A.** 3.4 fold

**Q.** What about the “increase in caspase 3/7 activity compared to all controls” value (caspase 3/7; 8 μM, 7 hrs, AsPC-1 cells, FIG. 5B) of the same compound?
**A.** approximately 3 fold

**Q.** And the IC50 (KCKO cells; Mus musculus, 24 h, read-out: IC50 concentration)?
**A.** 2.2 µM

**Q.** And the IC50 (KCKO cells; Mus musculus, 24 hours, mean ± SEM, n ≥ 3, read-out: IC50 ± SEM, KCKO)?
**A.** 2.4 ± 0.2 µM

**Q.** What about the viability at 10 µM (AsPC-1 cells; ASPC1, 10 μM SW V-49s 5 hours after 1 hour pre-treatment with 20 μM ZVAD) of the same compound?
**A.** 91%

**Q.** And the viability at 10 µM (AsPC-1 cells; ASPC1, 10 μM SW V-49s 5 hours after 1 hour pre-treatment with 10 mM NAC)?
**A.** 63%

**Q.** What about the viability at 10 µM (AsPC-1 cells; ASPC1, 10 μM SW V-49s alone, 5 hours (DMSO pre-treatment)) of the same compound?
**A.** 39%

**Q.** What about the IC50 (BxPC-3; Homo sapiens, BXPC-3, 24 h, read-out: IC50 concentration) of the same compound?
**A.** 2.3 µM

**Q.** What about the IC50 (BxPC-3; Homo sapiens, BXPC-3, 24 hours, mean ± SEM, n ≥ 3, read-out: IC50 ± SEM, BxPC-3) of the same compound?
**A.** 2.5 ± 0.1 µM

**Q.** And the IC50 (MIA PaCa-2; Homo sapiens, MIA PaCa-2, 24 h, read-out: IC50 concentration)?
**A.** 2.3 µM

**Q.** What about the IC50 (MIA PaCa-2; Homo sapiens, MIA PaCa-2, 24 hours, mean ± SEM, n ≥ 3, read-out: IC50 ± SEM, MiaPaCa-2) of the same compound?
**A.** 3 ± 0.3 µM

**Q.** What about the IC50 (PANC-1; Homo sapiens, PANC-1, 24 h, read-out: IC50 concentration) of the same compound?
**A.** 4.3 µM

**Q.** And the IC50 (PANC-1; Homo sapiens, PANC-1, 24 hours, mean ± SEM, n ≥ 3, read-out: IC50 ± SEM, PANC-1)?
**A.** 4.1 ± 0.2 µM

**Q.** With `CCOc1ccccc1-n1c(C(C)N2CCN(C(=O)COc3ccc(Cl)cc3)CC2)nc2ccccc2c1=O` (stereo not drawn) [Erastin] as the compound, how does the “increase in ROS” value [1] read?
**A.** no effect

**Q.** And the “ROS level compared to others” value [1]?
**A.** no increase

**Q.** What about the “caspase activity compared to 4 μM SW V-49s” value (caspase 3/7; AsPC-1 cells) of the same compound?
**A.** far less caspase activity

**Q.** What about the IC50 (KCKO cells; Mus musculus, 24 h, read-out: IC50 ± SEM, KCKO) of the same compound?
**A.** > 150 µM

**Q.** What about the IC50 (BxPC-3; Homo sapiens, BXPC-3, 24 h, read-out: IC50 ± SEM, BxPC-3) of the same compound?
**A.** > 150 µM

**Q.** What about the IC50 (MIA PaCa-2; Homo sapiens, MIA PaCa-2, 24 h, read-out: IC50 ± SEM, MiaPaCa-2) of the same compound?
**A.** > 150 µM

**Q.** And the IC50 (PANC-1; Homo sapiens, PANC-1, 24 h, read-out: IC50 ± SEM, PANC-1)?
**A.** > 150 µM
